Test results published in PMC7226357, “Aspirin: A Suicide Inhibitor of Carbonic Anhydrase II” (Biomolecules, 2020).

Target: T1, Carbonic anhydrase II (Homo sapiens, UniProt P00918)
T1 construct: gene CA2
Assay: colorimetric esterase assay at […] nm (substrate of the assay)
Type: biochemical

Structure (SMILES): CC(=O)Oc1ccc([N+](=O)[O-])cc1 [pNPA, 4-nitrophenyl acetate]
- colorimetric esterase assay at 348 nm (substrate of the assay): CAII cleaves the ester bond of 4-nitrophenyl acetate, generating 4-nitrophenol.
